This passage reports IC50 results from patent US8541407B2 (ArQule, Inc., priority 2010, dated 2013).

Counter-ions that a name gives are not always drawn.

For orientation: IC50 means the concentration at which inhibition is half-maximal.

AKT1, sequence (P31749 whole entry): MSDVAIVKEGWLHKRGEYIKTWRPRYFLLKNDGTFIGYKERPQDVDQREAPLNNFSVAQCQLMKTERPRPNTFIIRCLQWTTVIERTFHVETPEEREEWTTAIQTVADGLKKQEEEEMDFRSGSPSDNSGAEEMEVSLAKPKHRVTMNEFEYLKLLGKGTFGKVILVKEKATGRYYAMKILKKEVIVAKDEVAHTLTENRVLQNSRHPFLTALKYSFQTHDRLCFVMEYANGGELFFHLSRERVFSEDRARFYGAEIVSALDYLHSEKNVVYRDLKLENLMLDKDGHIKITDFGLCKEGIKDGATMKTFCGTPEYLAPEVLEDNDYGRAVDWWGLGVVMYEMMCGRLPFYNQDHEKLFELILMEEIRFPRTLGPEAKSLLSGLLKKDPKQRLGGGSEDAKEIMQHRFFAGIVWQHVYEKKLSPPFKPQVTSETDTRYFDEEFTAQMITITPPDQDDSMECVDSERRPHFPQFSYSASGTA

This assay addresses AKT1 (Homo sapiens (Human), UniProt P31749). Kind of assay: Inactive Akt Alpha Screen Assay. The conditions noted are these: non *labeled: Akt Alpha Screen assay; read-out: AKT1 biochemical assay, IC50. In outline:
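AKT1 activated in situ by PDK1, MAPKAPK2, lipid vesicles and ATP, then phosphorylating biotinylated crosstide for 30 min at room temperature. Stopped with 10 mM EDTA; phosphopeptide detected by AlphaScreen using phospho-AKT substrate antibody (1:350), Protein A acceptor and streptavidin donor beads, 90 min dark, ex 640/em 570 nm.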
Regarding `Cc1cccc2c1Nc1ncccc1-n1c(-c3ccc(C4(N)CCC4)cc3)nnc1-2` [Example 218, 1-(4-(10-methyl-9H-benzo[f]pyrido[2,3-b][1,2,4]triazolo[4,3-d][1,4]diazepin-3-yl)phenyl)cyclobutanamine], the concentration for half-maximal inhibition (IC50) turned out to be 1400 nM.

With `Nc1ccc(-c2nnc3n2-c2cccnc2Nc2ccccc2-3)cc1` [Example 11, hydrochloride], the IC50 is 730 nM.

On to `O=C(Nc1ccc(-c2nnc3n2-c2cccnc2Nc2ccccc2-3)cc1)c1cc(C(F)(F)F)cc(C(F)(F)F)c1` [Example 29, N-(4-(9H-benzo[f]pyrido[2,3-b][1,2,4]triazolo[4,3-d][1,4]diazepin-3-yl)phenyl)-3,5-bis(trifluoromethyl)benzamide], for which the half-inhibitory concentration (IC50) turned out to be 2500 nM.

Take `c1coc(-c2nnc3n2-c2cccnc2Nc2ccccc2-3)c1` [Example 2]: the IC50 stood at 6300 nM.

For `Clc1ccc(-c2nnc3n2-c2cccnc2Nc2ccccc2-3)cc1Cl` [Example 13, hydrochloride], the half-inhibitory concentration (IC50) is 5100 nM.

On to `O=C(Nc1ccc(-c2nnc3n2-c2cccnc2Nc2ccccc2-3)cc1)c1ccc(C(F)(F)F)cc1` [Example 52, N-(4-(9H-benzo[f]pyrido[2,3-b][1,2,4]triazolo[4,3-d][1,4]diazepin-3-yl)phenyl)-4-(trifluoromethyl)benzamide], for which the IC50 worked out at 650 nM.

Regarding `O=C(Cc1cccc2ccccc12)Nc1ccc(-c2nnc3n2-c2cccnc2Nc2ccccc2-3)cc1` [Example 35, N-(4-(9H-benzo[f]pyrido[2,3-b][1,2,4]triazolo[4,3-d][1,4]diazepin-3-yl)phenyl)-2-(naphthalen-1-yl)acetamide], the IC50 was 950 nM.

In the case of `COc1ccc(C(=O)Nc2ccc(-c3nnc4n3-c3cccnc3Nc3ccccc3-4)cc2)cc1` [Example 31, N-(4-(9H-benzo[f]pyrido[2,3-b][1,2,4]triazolo[4,3-d][1,4]diazepin-3-yl)phenyl)-4-methoxybenzamide], the half-maximal inhibitory concentration (IC50) came out at 160 nM.

Turning to `Cc1ccccc1CNC(=O)NC1CCN(Cc2ccc(-c3nnc4n3-c3cccnc3Nc3ccccc3-4)cc2)CC1` [Example 181, 1-(1-(4-(9H-benzo[f]pyrido[2,3-b][1,2,4]triazolo[4,3-d][1,4]diazepin-3-yl)benzyl)piperidin-4-yl)-3-(2-methylbenzyl)urea], the IC50 was determined as 1200 nM.

With `O=C(c1ccc2c(c1)OCO2)N1CCN(Cc2ccc(-c3nnc4n3-c3cccnc3Nc3ccccc3-4)cc2)CC1` [Example 158, (4-(4-(9H-benzo[f]pyrido[2,3-b][1,2,4]triazolo[4,3-d][1,4]diazepin-3-yl)benzyl)piperazin-1-yl)(benzo[d][1,3]dioxol-5-yl)methanone], the IC50 was 6900 nM.

Consider `CN(C)C(=O)CN1CCN(Cc2ccc(-c3nnc4n3-c3cccnc3Nc3ccccc3-4)cc2)CC1` [Example 72, 2-(4-(4-(9H-benzo[f]pyrido[2,3-b][1,2,4]triazolo[4,3-d][1,4]diazepin-3-yl)benzyl)piperazin-1-yl)-N,N-dimethylacetamide], for which the half-inhibitory concentration (IC50) amounted to 8000 nM.

As for `O=S(=O)(NCc1ccc(-c2nnc3n2-c2cccnc2Nc2ccccc2-3)cc1)c1ccccc1` [Example 101, N-(4-(9H-benzo[f]pyrido[2,3-b][1,2,4]triazolo[4,3-d][1,4]diazepin-3-yl)benzyl)benzenesulfonamide], the IC50 was 140 nM.

In the case of `CC(C)(N)c1ccc(-c2nnc3n2-c2cccnc2Nc2ccccc2-3)cc1` [Example 192, 2-(4-(9H-benzo[f]pyrido[2,3-b][1,2,4]triazolo[4,3-d][1,4]diazepin-3-yl)phenyl)propan-2-amine], the IC50 was 340 nM.

As to `O=C(Nc1ccc(-c2nnc3n2-c2cccnc2Nc2ccccc2-3)cc1)c1cccnc1` [Example 40, N-(4-(9H-benzo[f]pyrido[2,3-b][1,2,4]triazolo[4,3-d][1,4]diazepin-3-yl)phenyl)nicotinamide], the half-maximal inhibitory concentration (IC50) is 260 nM.

With `c1ccc(OC2CCN(Cc3ccc(-c4nnc5n4-c4cccnc4Nc4ccccc4-5)cc3)CC2)cc1` [Example 188, 3-(4-((4-phenoxypiperidin-1-yl)methyl)phenyl)-9H-benzo[f]pyrido[2,3-b][1,2,4]triazolo[4,3-d][1,4]diazepine], the half-inhibitory concentration (IC50) is 830 nM.

Take `OC1CCCN(Cc2ccc(-c3nnc4n3-c3cccnc3Nc3ccccc3-4)cc2)C1` (stereo not drawn) [Example 83, 1-(4-(9H-benzo[f]pyrido[2,3-b][1,2,4]triazolo[4,3-d][1,4]diazepin-3-yl)benzyl)piperidin-3-ol]: the IC50 stood at 5700 nM.

Regarding `O=C(NCCc1ccc(Cl)cc1)NC1CCN(Cc2ccc(-c3nnc4n3-c3cccnc3Nc3ccccc3-4)cc2)CC1` [Example 180, 1-(1-(4-(9H-benzo[f]pyrido[2,3-b][1,2,4]triazolo[4,3-d][1,4]diazepin-3-yl)benzyl)piperidin-4-yl)-3-(4-chlorophenethyl)urea], the IC50 worked out at 940 nM.

In the case of `O=C(Nc1ccc(-c2nnc3n2-c2cccnc2Nc2ccccc2-3)cc1)c1ccco1` [Example 50, N-(4-(9H-benzo[f]pyrido[2,3-b][1,2,4]triazolo[4,3-d][1,4]diazepin-3-yl)phenyl)furan-2-carboxamide], the IC50 worked out at 130 nM.

Take `O=C(c1ccc(F)cc1)C1CCN(Cc2ccc(-c3nnc4n3-c3cccnc3Nc3ccccc3-4)cc2)CC1` [Example 164, (1-(4-(9H-benzo[f]pyrido[2,3-b][1,2,4]triazolo[4,3-d][1,4]diazepin-3-yl)benzyl)piperidin-4-yl)(4-fluorophenyl)methanone]: the IC50 was determined as 1800 nM.

With `COc1ccc(S(=O)(=O)NCc2ccc(-c3nnc4n3-c3cccnc3Nc3ccccc3-4)cc2)cc1` [Example 102, N-(4-(9H-benzo[f]pyrido[2,3-b][1,2,4]triazolo[4,3-d][1,4]diazepin-3-yl)benzyl)-4-methoxybenzenesulfonamide], the 50% inhibitory concentration (IC50) amounted to 800 nM.

Regarding `CCCc1ccccc1NC(=O)NC1CCN(Cc2ccc(-c3nnc4n3-c3cccnc3Nc3ccccc3-4)cc2)CC1` [Example 177, 1-(1-(4-(9H-benzo[f]pyrido[2,3-b][1,2,4]triazolo[4,3-d][1,4]diazepin-3-yl)benzyl)piperidin-4-yl)-3-(2-propylphenyl)urea], the IC50 was 770 nM.

`CC(=O)Nc1ccc(S(=O)(=O)NCc2ccc(-c3nnc4n3-c3cccnc3Nc3ccccc3-4)cc2)cc1` [Example 120, N-(4-(N-(4-(9H-benzo[f]pyrido[2,3-b][1,2,4]triazolo[4,3-d][1,4]diazepin-3-yl)benzyl)sulfamoyl)phenyl) acetamide]: the IC50 amounted to 140 nM.

Take `O=S(=O)(NC1(c2ccc(-c3nnc4n3-c3cccnc3Nc3ccccc3-4)cc2)CCC1)c1ccc(F)cc1` [Example 197, N-(1-(4-(9H-benzo[f]pyrido[2,3-b][1,2,4]triazolo[4,3-d][1,4]diazepin-3-yl)phenyl)cyclobutyl)-4-fluorobenzenesulfonamide]: the IC50 stood at 580 nM.

`Cc1ccc(C(=O)N2CCN(Cc3ccc(-c4nnc5n4-c4cccnc4Nc4ccccc4-5)cc3)CC2)cc1` [Example 160, (4-(4-(9H-benzo[f]pyrido[2,3-b][1,2,4]triazolo[4,3-d][1,4]diazepin-3-yl)benzyl)piperazin-1-yl)(p-tolyl)methanone]: the concentration for half-maximal inhibition (IC50) was 3000 nM.

For `CCCNCc1ccc(-c2nnc3n2-c2cccnc2Nc2ccccc2-3)cc1` [Example 87, N-(4-(9H-benzo[f]pyrido[2,3-b][1,2,4]triazolo[4,3-d][1,4]diazepin-3-yl)benzyl)propan-1-amine], the half-maximal inhibitory concentration (IC50) is 5800 nM.

For the molecule `O=C(c1ccccn1)N1CCN(Cc2ccc(-c3nnc4n3-c3cccnc3Nc3ccccc3-4)cc2)CC1` [Example 161, (4-(4-(9H-benzo[f]pyrido[2,3-b][1,2,4]triazolo[4,3-d][1,4]diazepin-3-yl)benzyl)piperazin-1-yl)(pyridin-2-yl)methanone], the IC50 was found to be 4200 nM.

Turning to `CCCN(C)Cc1ccc(-c2nnc3n2-c2cccnc2Nc2ccccc2-3)cc1` [Example 90, N-(4-(9H-benzo[f]pyrido[2,3-b][1,2,4]triazolo[4,3-d][1,4]diazepin-3-yl)benzyl)-N-methylpropan-1-amine], the IC50 came to 2500 nM.

As for `O=C(CCc1ccccc1)N1CCN(Cc2ccc(-c3nnc4n3-c3cccnc3Nc3ccccc3-4)cc2)CC1` [Example 135, 1-(4-(4-(9H-benzo[f]pyrido[2,3-b][1,2,4]triazolo[4,3-d][1,4]diazepin-3-yl)benzyl)piperazin-1-yl)-3-phenylpropan-1-one], the IC50 was determined as 3400 nM.

As for `O=S(=O)(NCc1ccc(-c2nnc3n2-c2cccnc2Nc2ccccc2-3)cc1)c1ccc(Cl)cc1` [Example 119, N-(4-(9H-benzo[f]pyrido[2,3-b][1,2,4]triazolo[4,3-d][1,4]diazepin-3-yl)benzyl)-4-chlorobenzenesulfonamide], the IC50 came out at 220 nM.

As to `COC(=O)c1sccc1S(=O)(=O)NC1CCN(Cc2ccc(-c3nnc4n3-c3cccnc3Nc3ccccc3-4)cc2)CC1` [Example 145, methyl 3-(N-(1-(4-(9H-benzo[f]pyrido[2,3-b][1,2,4]triazolo[4,3-d][1,4]diazepin-3-yl)benzyl)piperidin-4-yl)sulfamoyl)thiophene-2-carboxylate], the IC50 was found to be 790 nM.

Consider `CCCC(=O)Nc1ccc(-c2nnc3n2-c2cccnc2Nc2ccccc2-3)cc1` [Example 32, N-(4-(9H-benzo[f]pyrido[2,3-b][1,2,4]triazolo[4,3-d][1,4]diazepin-3-yl)phenyl)butyramide], for which the IC50 was found to be 730 nM.

As for `O=S(=O)(NCc1ccc(-c2nnc3n2-c2cccnc2Nc2ccccc2-3)cc1)c1ccccc1F` [Example 112, N-(4-(9H-benzo[f]pyrido[2,3-b][1,2,4]triazolo[4,3-d][1,4]diazepin-3-yl)benzyl)-2-fluorobenzenesulfonamide], the IC50 amounted to 170 nM.

`O=C(c1ccc(F)c(F)c1)N1CCN(Cc2ccc(-c3nnc4n3-c3cccnc3Nc3ccccc3-4)cc2)CC1` [Example 143, (4-(4-(9H-benzo[f]pyrido[2,3-b][1,2,4]triazolo[4,3-d][1,4]diazepin-3-yl)benzyl)piperazin-1-yl)(3,4-difluorophenyl)methanone]: the IC50 was 4900 nM.
